Measurements: patent US20150258108A1 (priority 2014, published 2015)
Where “and” joins values, the source holds several entries; their conditions need not be identical. Equal entries are not always repeated. Entries after “also recorded” stand apart in the source; their conditions may differ. Where two headings read alike, the source gives them in different places.

Assays:
[1] = Pupillometry and cold pressor test in healthy volunteers; format: in vivo, human; conditions: 3-60 mg single oral dose
Method: Pulse oximetry and capnography data were collected continuously using a GE Carescape B650 monitoring system from 2 hours prior to dosing and until six hours after dosing, and thereafter at 12, 24, 48 and 72 hours post-dosing. Additional oximetry data were collected at 120, 168 and 216 hours. Pupillary miosis was assessed by pupillometry. Dark-adapted pupil diameter was measured in triplicate using a Neuroptics PLR-200 pupillometer under standardized light intensity (<5 lux) pre-dose, and at 2, 4, 6, 12, 24, 48, 72, 96, 120, 168 and 216 hours post-dosing.
Summary statistics (means, standard deviations, and coefficients of variation) were determined for each dose group for safety laboratory test data, ECG and pharmacokinetic parameters, and pharmacodynamic variables. Categorical variables were analysed using counts and percentages. Dose-proportionality of AUC and Cmax was assessed using linear regression. The effect of dose on pharmacodynamic parameter values over time was assessed using two-factor analysis of variance (ANOVA). […]
Analgesic effect was assessed based on duration of hand immersion in ice water and on visual analog scale (VAS) pain scores upon hand removal from the water bath. […]

[2] = Safety and tolerability of noribogaine in healthy humans; format: in vivo, human
Method: Safety and tolerability of noribogaine were tested in the group of volunteers from Example 1. Cold pressor testing was conducted in 1° C. water according to the method of Mitchell et al. (J. Pain 5:233-237, 2004) pre-dose, 6, 24, 48, 72 and 216 hours post-dosing. Safety evaluations included clinical monitoring, recording of adverse events (AEs), safety laboratory tests, vital signs, ECG telemetry from −2 h to 6 h after dosing, and 12-lead electrocardiograms (ECGs) up to 216 hours post-dosing.

[3] = Time to resumption of OST and opiate withdrawal scales (COWS, SOWS, OOWS); format: in vivo, human; conditions: opioid-dependent patients
[4] = QT interval (ΔQTcl) in opioid-dependent patients; format: in vivo, human; conditions: 60, 120, 180 mg, first 24 hours; correlated with serum concentration
Method: Patients' QT intervals were evaluated at regular time points throughout the study.

[5] = system: OPRD: human opioid receptor delta; conditions: previously shown; cited from earlier work
OPRK = OPRK (Homo sapiens, UniProt P41145); assay: cell-based; set-up: host or cells: CHO-K1
[6] = target: human OPRM (μ-opioid receptor) (Homo sapiens, UniProt P35372); assay: biochemical; format: binding; set-up: expressed in transfected cells; host or cells: CHO-K1 (cell lines provided by Dr. Toll, Torrey Pines Institute)
Chain of human OPRM (μ-opioid receptor) (P35372 whole entry): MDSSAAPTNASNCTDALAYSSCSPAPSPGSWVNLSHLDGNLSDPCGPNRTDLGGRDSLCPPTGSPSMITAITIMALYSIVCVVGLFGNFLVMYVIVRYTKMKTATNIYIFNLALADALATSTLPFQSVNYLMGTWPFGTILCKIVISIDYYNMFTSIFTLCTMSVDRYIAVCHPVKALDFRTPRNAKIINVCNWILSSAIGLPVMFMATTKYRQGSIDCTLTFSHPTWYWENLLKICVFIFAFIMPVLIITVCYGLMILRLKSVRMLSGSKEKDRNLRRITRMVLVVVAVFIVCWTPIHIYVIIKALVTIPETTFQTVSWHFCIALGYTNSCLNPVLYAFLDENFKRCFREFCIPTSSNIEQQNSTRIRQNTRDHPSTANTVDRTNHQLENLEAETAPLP

Chain of OPRK (P41145 whole entry): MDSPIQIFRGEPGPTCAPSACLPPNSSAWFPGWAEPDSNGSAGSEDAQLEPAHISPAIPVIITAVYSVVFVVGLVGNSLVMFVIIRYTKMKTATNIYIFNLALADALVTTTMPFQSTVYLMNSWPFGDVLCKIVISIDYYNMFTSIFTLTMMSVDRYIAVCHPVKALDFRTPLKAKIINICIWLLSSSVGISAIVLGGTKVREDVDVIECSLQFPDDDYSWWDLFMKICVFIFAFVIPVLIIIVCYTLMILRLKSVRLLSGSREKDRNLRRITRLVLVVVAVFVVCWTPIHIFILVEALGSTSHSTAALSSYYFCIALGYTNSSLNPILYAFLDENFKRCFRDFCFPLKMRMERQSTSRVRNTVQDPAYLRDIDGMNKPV

CC[C@H]1CC2C[C@H]3c4[nH]c5ccc(O)cc5c4CCN(C2)C13 [Noribogaine]
analgesic effect in the cold pressor test ([1]; hand immersion duration and VAS pain scores): no analgesic effect
pupillary constriction (pupillometry, dark-adapted pupil diameter) ([1]; vs placebo): no evidence of pupillary constriction
adverse events reported ([2]; 3 mg dose group, healthy volunteers): five adverse events were reported by two subjects
adverse events reported ([2]; 10 mg dose group, healthy volunteers): one adverse event was reported by single subjects
adverse events reported ([2]; 30 mg dose group, healthy volunteers): one adverse event was reported by single subjects
oximetry, capnography, respiratory rate ([2]; 3-60 mg, healthy volunteers): no changes in oximetry or capnography, or changes in respiratory rate
vital signs and safety laboratory tests ([2]; 3-60 mg, healthy volunteers): no changes in vital signs or safety laboratory tests of note
Adverse events: Mild ([2]; Dose 3 mg, healthy volunteers): Dizziness; also recorded: Epistaxis; also recorded: Headache; also recorded: Back pain
Adverse events: Moderate ([2]; Dose 3 mg, healthy volunteers): Headache
Adverse events: Mild ([2]; Dose 10 mg, healthy volunteers): Headache
Adverse events: Mild ([2]; Dose 30 mg, healthy volunteers): Headache
QTcF values ([2]; any time, all dose groups 3-60 mg, healthy volunteers): ≤ 500 ms
single increase in QTcF ([2]; one subject dosed with 10 mg, 24 hours post-dosing): > 60 ms
withdrawal symptoms (COWS, OOWS, SOWS) over first six hours ([3]; 120 mg): generally experienced fewer withdrawal symptoms than the other patients
average time to resumption of opioids (OST) ([3]; single 120 mg dose): greater than 20 hours
QT interval prolongation (ΔQTcl) [4]: dose-dependent increase in QT interval prolongation
fold less affine at OPRD than at OPRK [5]: ~30 ×
EC50 (OPRK): ~0.265 µM
IC50 (OPRK): 1.45 ± 1.1 µM
Kb (OPRK): 0.251 µM
Beta-Arrestin2 Pathway e-coupling (OPRK; OPRK, Activation): −0.43
Beta-Arrestin2 Pathway e-signal (OPRK; OPRK, Activation): 0.13
inhibition of agonist response (up to) (OPRK; OPRK, Dynorphin A at EC80): ~60%
IC50 (OPRK; OPRK, Dynorphin A at EC80 (370 nM Dyn-A)): 1.45 µM
Beta-Arrestin2 Pathway e-coupling (OPRK; OPRK, Inhibition): −0.44
Beta-Arrestin2 Pathway e-signal (OPRK; OPRK, Inhibition): 0.60
Efficacy (Emax) (OPRK; OPRK, activation, % of dynorphin A maximal stimulation): 12% and 12.6%
e-coupling (OPRK; OPRK, activation, pKi-pEC50): −0.43
Ke (OPRK; OPRK, inhibition of Dynorphin A at EC80): 262 nM
e-coupling (OPRK; OPRK, inhibitory component, pKi-pKe): −0.44
Ki [6]: 1.52 ± 0.3 µM
